From US20230085307A1, “PYRIDAZINONE COMPOUND AND HERBICIDE” (NISSAN CHEMICAL CORPORATION, priority 2019, published 2023)

Tests used:
oval-leafed pondweed [1] = test: Test Example 1: herbicidal activity, application before weed generation under submerged conditions (Table 16, symbol C); type: in vivo, oval-leafed pondweed (Monochoria vaginalis); conditions: 320 g/ha applied herbicide
Procedure, shortened: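 Emulsion formulation, water-diluted to set dose, was put onto the flooded surface (4 cm depth, alluvial soil) the same day weeds were sown and 2.5-leaf rice transplanted. After 3 weeks at 25-30 °C under glass, each species was rated 0 (≤5% kill) to 5 (≥90% kill).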

Japanese bulrush = test: Test Example 2: herbicidal activity, application during weed generation under submerged conditions (Table 17, symbol B); type: in vivo, Japanese bulrush (Schoenoplectus juncoides); conditions: AAH 320 g/ha; application during weed generation, submerged conditions
Procedure, shortened: (§1)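 Wagner pot, alluvial soil, 4 cm flood; mixed sowing of all species; greenhouse 25° C.–30° C. Emulsifiable formulation, water-diluted to predetermined dose, applied to paddy water at 1–2 leaf stage. Effect rated at 3 wk using the earlier test's scoring criteria.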

oval-leafed pondweed [2] = test: Test Example 2: herbicidal activity, application during weed generation under submerged conditions (Table 17, symbol C); type: in vivo, oval-leafed pondweed (Monochoria vaginalis); conditions: AAH 320 g/ha; application during weed generation, submerged conditions
Procedure, shortened: as §1

barnyard grass [3] = test: Test Example 3: herbicidal effect by foliage application, Wagner pot (Table 18, symbol H); type: in vivo, barnyard grass (Echinochloa crus-galli); conditions: amount of applied herbicide 320 g/ha
Procedure, shortened: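 Plants were sown in alluvial soil held under 0.1–0.5 cm standing water and grown 14 days in a greenhouse at 25–30 °C. An emulsifiable formulation, water-diluted to the set dose, was then sprayed onto the foliage, and effects were scored three weeks later using previously defined criteria.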

green foxtail = test: Test Example 4: herbicidal effect by soil treatment (Table 19, symbol G); type: in vivo, green foxtail (Setaria viridis); conditions: amount of applied herbicide 320 g/ha
Procedure, shortened: (§2)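 Herbicidal effect was rated 3 weeks after treatment, using the scoring criteria of an earlier test. The compound, formulated as an emulsion and diluted in water to a set herbicide amount, had been sprayed uniformly on soil over freshly sown seeds. Growth took place in a greenhouse at 25° C. to 30° C.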

barnyard grass [4] = test: Test Example 4: herbicidal effect by soil treatment (Table 19, symbol H); type: in vivo, barnyard grass (Echinochloa crus-galli); conditions: amount of applied herbicide 320 g/ha
Procedure, shortened: as §2

blackgrass = test: Test Example 4: herbicidal effect by soil treatment (Table 19, symbol J); type: in vivo, blackgrass (Alopecurus myosuroides); conditions: amount of applied herbicide 320 g/ha
Procedure, shortened: as §2

velvetleaf = test: Test Example 4: herbicidal effect by soil treatment (Table 19, symbol M); type: in vivo, velvetleaf (Abutilon theophrasti); conditions: amount of applied herbicide 320 g/ha
Procedure, shortened: as §2

redroot pigweed [5] = test: Test Example 4: herbicidal effect by soil treatment (Table 19, symbol N); type: in vivo, redroot pigweed (Amaranthus retroflexus); conditions: amount of applied herbicide 320 g/ha
Procedure, shortened: as §2

persian speedwell [6] = test: Test Example 4: herbicidal effect by soil treatment (Table 19, symbol R); type: in vivo, Persian speedwell (Veronica persica); conditions: amount of applied herbicide 320 g/ha
Procedure, shortened: as §2

southern crabgrass = test: Test Example 5: herbicidal effect by foliage application, plastic box (Table 20, symbol F); type: in vivo, southern crabgrass (Digitaria ciliaris); conditions: foliage application, AAH 320 g/ha, evaluated three weeks after application
Procedure, shortened: (§3)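 Foliar spray test: emulsion formulation diluted in water to a set application rate, sprayed onto 14-day-old plants raised in diluvial soil at 25° C to 30° C under glass. Both herbicidal effect and crop effect rated visually three weeks later.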

windgrass = test: Test Example 5: herbicidal effect by foliage application, plastic box (Table 20, symbol L); type: in vivo, windgrass (Apera spica-venti); conditions: foliage application, AAH 320 g/ha, evaluated three weeks after application
Procedure, shortened: as §3

redroot pigweed [7] = test: Test Example 5: herbicidal effect by foliage application, plastic box (Table 20, symbol N); type: in vivo, redroot pigweed (Amaranthus retroflexus); conditions: foliage application, AAH 320 g/ha, evaluated three weeks after application
Procedure, shortened: as §3

lambsquarters = test: Test Example 5: herbicidal effect by foliage application, plastic box (Table 20, symbol O); type: in vivo, lambsquarters (Chenopodium album); conditions: foliage application, AAH 320 g/ha, evaluated three weeks after application
Procedure, shortened: as §3

chickweed = test: Test Example 5: herbicidal effect by foliage application, plastic box (Table 20, symbol P); type: in vivo, common chickweed (Stellaria media); conditions: foliage application, AAH 320 g/ha, evaluated three weeks after application
Procedure, shortened: as §3

persian speedwell [8] = test: Test Example 5: herbicidal effect by foliage application, plastic box (Table 20, symbol R); type: in vivo, Persian speedwell (Veronica persica); conditions: foliage application, AAH 320 g/ha, evaluated three weeks after application
Procedure, shortened: as §3

In the case of COCC(=O)Oc1c(C)nn(C)c(=O)c1-c1c(-c2ccc(OC(F)F)cc2)sc2ccc(F)cc12 [2-283], the “Herbicidal effect on C: oval-leafed pondweed (grade 0-5)” value (from here on “Herbicidal effect on C”) (oval-leafed pondweed [1]) was 3 (Herbicidal rate of 40% or more and less than 70%), the “herbicidal effect rating, B: Japanese bulrush” value (“herbicidal effect rating, B” below) (Japanese bulrush) was 3 (Herbicidal rate of 40% or more and less than 70%) and the “herbicidal effect rating, C: oval-leafed pondweed” value (“herbicidal effect rating, C” below) (oval-leafed pondweed [2]) was 4 (Herbicidal rate of 70% or more and less than 90%). For the same molecule, the “herbicidal effect on H: barnyard grass” value (barnyard grass [3]) was 5 (Herbicidal rate of 90% or more (almost completely withered)), the “herbicidal effect on G: green foxtail” value (green foxtail) was 5 (Herbicidal rate of 90% or more (almost completely withered)) and the “herbicidal effect on H: barnyard grass” value (barnyard grass [4]) was 5 (Herbicidal rate of 90% or more (almost completely withered)). The “herbicidal effect on J: blackgrass” value (blackgrass) was 3 (Herbicidal rate of 40% or more and less than 70%), the “herbicidal effect on M: velvetleaf” value (velvetleaf) was 5 (Herbicidal rate of 90% or more (almost completely withered)) and the “herbicidal effect on N: redroot pigweed” value (redroot pigweed [5]) was 5 (Herbicidal rate of 90% or more (almost completely withered)). For the same molecule, the “herbicidal effect on R: persian speedwell” value (“herbicidal effect on R” below) (persian speedwell [6]) was 5 (Herbicidal rate of 90% or more (almost completely withered)), the “F: southern crabgrass, herbicidal effect (criteria 0-5)” value (“F: southern crabgrass” below) (southern crabgrass) was 5 (Herbicidal rate of 90% or more (almost completely withered)) and the “L: windgrass, herbicidal effect (criteria 0-5)” value (from here on “L: windgrass, herbicidal effect”) (windgrass) was 5 (Herbicidal rate of 90% or more (almost completely withered)). For the same molecule, the “N: redroot pigweed, herbicidal effect (criteria 0-5)” value (from here on “N: redroot pigweed … (criteria 0-5)”) (redroot pigweed [7]) was 5 (Herbicidal rate of 90% or more (almost completely withered)), the “O: lambsquarters, herbicidal effect (criteria 0-5)” value (“O: lambsquarters, herbicidal effect” below) (lambsquarters) was 5 (Herbicidal rate of 90% or more (almost completely withered)) and the “P: chickweed, herbicidal effect (criteria 0-5)” value (“P: chickweed, herbicidal effect” for short) (chickweed) was 5 (Herbicidal rate of 90% or more (almost completely withered)). The “R: persian speedwell, herbicidal effect (criteria 0-5)” value (from here on “R: persian speedwell … (criteria 0-5)”) (persian speedwell [8]) was 5 (Herbicidal rate of 90% or more (almost completely withered)).
For Cc1nn(C)c(=O)c(-c2c(-c3ccc(OC(F)F)cc3)sc3ccc(F)cc23)c1OC(=O)c1ccc(Cl)cc1 [2-286], the “Herbicidal effect on C” value (oval-leafed pondweed [1]) was 1 (Herbicidal rate of 5% or more and less than 20%), the “herbicidal effect rating, B” value (Japanese bulrush) was 3 (Herbicidal rate of 40% or more and less than 70%) and the “herbicidal effect rating, C” value (oval-leafed pondweed [2]) was 3 (Herbicidal rate of 40% or more and less than 70%). For the same molecule, the “herbicidal effect on H: barnyard grass” value (barnyard grass [3]) was 5 (Herbicidal rate of 90% or more (almost completely withered)), the “herbicidal effect on G: green foxtail” value (green foxtail) was 3 (Herbicidal rate of 40% or more and less than 70%) and the “herbicidal effect on H: barnyard grass” value (barnyard grass [4]) was 1 (Herbicidal rate of 5% or more and less than 20%). The “herbicidal effect on J: blackgrass” value (blackgrass) was 0 (Herbicidal rate of 5% or less (almost no effect)), the “herbicidal effect on M: velvetleaf” value (velvetleaf) was 0 (Herbicidal rate of 5% or less (almost no effect)) and the “herbicidal effect on N: redroot pigweed” value (redroot pigweed [5]) was 4 (Herbicidal rate of 70% or more and less than 90%). For the same molecule, the “herbicidal effect on R” value (persian speedwell [6]) was 3 (Herbicidal rate of 40% or more and less than 70%), the “F: southern crabgrass” value (southern crabgrass) was 2 (Herbicidal rate of 20% or more and less than 40%) and the “L: windgrass, herbicidal effect” value (windgrass) was 0 (Herbicidal rate of 5% or less (almost no effect)). The “N: redroot pigweed … (criteria 0-5)” value (redroot pigweed [7]) was 5 (Herbicidal rate of 90% or more (almost completely withered)), the “O: lambsquarters, herbicidal effect” value (lambsquarters) was 5 (Herbicidal rate of 90% or more (almost completely withered)) and the “P: chickweed, herbicidal effect” value (chickweed) was 5 (Herbicidal rate of 90% or more (almost completely withered)). For the same molecule, the “R: persian speedwell … (criteria 0-5)” value (persian speedwell [8]) was 5 (Herbicidal rate of 90% or more (almost completely withered)).
In the case of Cc1nn(C)c(=O)c(-c2c(-c3ccc(OC(F)F)cc3)sc3ccc(F)cc23)c1OC(=O)C1CCCO1 (stereo not shown) [2-289], the “Herbicidal effect on C” value (oval-leafed pondweed [1]) was 3 (Herbicidal rate of 40% or more and less than 70%), the “herbicidal effect rating, B” value (Japanese bulrush) was 3 (Herbicidal rate of 40% or more and less than 70%) and the “herbicidal effect rating, C” value (oval-leafed pondweed [2]) was 4 (Herbicidal rate of 70% or more and less than 90%). For the same molecule, the “herbicidal effect on H: barnyard grass” value (barnyard grass [3]) was 5 (Herbicidal rate of 90% or more (almost completely withered)), the “herbicidal effect on G: green foxtail” value (green foxtail) was 5 (Herbicidal rate of 90% or more (almost completely withered)) and the “herbicidal effect on H: barnyard grass” value (barnyard grass [4]) was 5 (Herbicidal rate of 90% or more (almost completely withered)). The “herbicidal effect on J: blackgrass” value (blackgrass) was 5 (Herbicidal rate of 90% or more (almost completely withered)), the “herbicidal effect on M: velvetleaf” value (velvetleaf) was 5 (Herbicidal rate of 90% or more (almost completely withered)) and the “herbicidal effect on N: redroot pigweed” value (redroot pigweed [5]) was 5 (Herbicidal rate of 90% or more (almost completely withered)). The “herbicidal effect on R” value (persian speedwell [6]) was 5 (Herbicidal rate of 90% or more (almost completely withered)), the “F: southern crabgrass” value (southern crabgrass) was 3 (Herbicidal rate of 40% or more and less than 70%) and the “L: windgrass, herbicidal effect” value (windgrass) was 5 (Herbicidal rate of 90% or more (almost completely withered)). The “N: redroot pigweed … (criteria 0-5)” value (redroot pigweed [7]) was 5 (Herbicidal rate of 90% or more (almost completely withered)), the “O: lambsquarters, herbicidal effect” value (lambsquarters) was 5 (Herbicidal rate of 90% or more (almost completely withered)) and the “P: chickweed, herbicidal effect” value (chickweed) was 5 (Herbicidal rate of 90% or more (almost completely withered)). For the same molecule, the “R: persian speedwell … (criteria 0-5)” value (persian speedwell [8]) was 5 (Herbicidal rate of 90% or more (almost completely withered)).
CCOC(=O)Oc1c(C)nn(C)c(=O)c1-c1c(-c2ccc(OC(F)F)cc2)sc2ccc(F)cc12 [2-292] was tested, and the “Herbicidal effect on C” value (oval-leafed pondweed [1]) was 4 (Herbicidal rate of 70% or more and less than 90%), the “herbicidal effect rating, B” value (Japanese bulrush) was 5 (Herbicidal rate of 90% or more (almost completely withered)) and the “herbicidal effect rating, C” value (oval-leafed pondweed [2]) was 5 (Herbicidal rate of 90% or more (almost completely withered)). For the same molecule, the “herbicidal effect on H: barnyard grass” value (barnyard grass [3]) was 5 (Herbicidal rate of 90% or more (almost completely withered)), the “herbicidal effect on G: green foxtail” value (green foxtail) was 5 (Herbicidal rate of 90% or more (almost completely withered)) and the “herbicidal effect on H: barnyard grass” value (barnyard grass [4]) was 5 (Herbicidal rate of 90% or more (almost completely withered)). The “herbicidal effect on J: blackgrass” value (blackgrass) was 3 (Herbicidal rate of 40% or more and less than 70%), the “herbicidal effect on M: velvetleaf” value (velvetleaf) was 3 (Herbicidal rate of 40% or more and less than 70%) and the “herbicidal effect on N: redroot pigweed” value (redroot pigweed [5]) was 5 (Herbicidal rate of 90% or more (almost completely withered)). The “herbicidal effect on R” value (persian speedwell [6]) was 5 (Herbicidal rate of 90% or more (almost completely withered)), the “F: southern crabgrass” value (southern crabgrass) was 5 (Herbicidal rate of 90% or more (almost completely withered)) and the “L: windgrass, herbicidal effect” value (windgrass) was 2 (Herbicidal rate of 20% or more and less than 40%). For the same molecule, the “N: redroot pigweed … (criteria 0-5)” value (redroot pigweed [7]) was 5 (Herbicidal rate of 90% or more (almost completely withered)), the “O: lambsquarters, herbicidal effect” value (lambsquarters) was 5 (Herbicidal rate of 90% or more (almost completely withered)) and the “P: chickweed, herbicidal effect” value (chickweed) was 5 (Herbicidal rate of 90% or more (almost completely withered)). The “R: persian speedwell … (criteria 0-5)” value (persian speedwell [8]) was 5 (Herbicidal rate of 90% or more (almost completely withered)).
